Data published in patent US7910579B2, “Benzoxazole derivatives” (Tohoku University, priority 2006, dated 2011).

Target: T1, amyloid β protein in the brain section of an Alzheimer disease patient (Homo sapiens, UniProt P05067)
T1 construct: from tissue; host or cells: paraffin-embedded temporal lobe and hippocampus of Alzheimer disease patients
Assay: Staining test on a brain section of an Alzheimer disease patient: amyloid β protein
Format: binding
Settings: for Binding to (staining of) amyloid β protein in the brain section of an Alzheimer disease patient: 100 μM solution in 50% ethanol, 10 minutes, paraffin brain section; for Specificity to amyloid β: statement in the description of formulae (II) to (VI)
Text: (1) Brain specimens at the temporal lobe and the hippocampus of patients to which a definitive diagnosis of Alzheimer disease had been given, and those of normal senile persons were used. The specimens were given by our coworker, Fukushimura Hospital, Longevity Medicine Institute, and we were given their consent of use of the specimens for our study purpose by the bereaved of the patients (Fukushimura Hospital Ethical Review Board Approval No. 20).
(2) The paraffin-embedded brain tissue was cut Into slices having a thickness of 6 μm or 8 μm, and extended and dried on a slide. The paraffin brain section was steeped for paraffin removal in xylene twice for 10 minutes, 100% ethanol twice for 5 minutes, 90% ethanol for 5 minutes and running water for 10 minutes in that order.
(3) For pretreatment prior to the staining treatment with a compound of the invention, the sections were steeped for autofluorescence removal with lipofuscin. First, the paraffin-removed sections were dipped in 0.25% KMnO4 solution for 20 minutes. These were washed with PBS, twice for 2 minutes, then dipped in 0.1% K2S2O5/oxalic acid solution for about 5 seconds, and then further washed with PBS, three times for 2 minutes.
(4) About 150 μl of a 100 μM solution of a compound of the invention dissolved in 50% ethanol was dropwise applied to the section and reacted for 10 minutes. After dipped five times in tap water, the section was entrapped with Fluor Save Reagent (Calbiochem), and analyzed through microscopy with a fluorescence microscope (Nikon, Eclipse 80i). The images were taken with a digital camera (Nikon Dxm 1200F or Photometrics' Cool SNAP ES).
(1) After paraffin removal, the sections were washed in distilled water, twice for 2 minutes. Then, using ImmunoPen, the tissue was marked with a surrounding line; about 150 μl of formic acid was dropwise applied to the section and statically left at room temperature for 5 minutes. The section was washed with tap water for 5 minutes, then dipped in cold PBS-Tween 20 for 2 minutes, and thereafter about 150 μl of 0.05% trypsin solution was dropwise applied to it and reacted at 37° C. for 15 minutes.
(2) In an ice bath, this was washed with cold PBS-Tween 20, twice for 5 minutes, and then 2 drops of blocking serum were applied to it and reacted at 37° C. for 30 minutes. Excess water was removed, and then about 150 μl of a specific antibody to amyloid β protein, 6F/3D (by DAKO, 1/50 dilution) was dropwise applied to it, and reacted at 37° C. for 1 hour.
(3) Further, this was washed with cold PBS-Tween 20, 5 times for 2 minutes, and then 2 drops of an anti-mouse IgG (H+L), goat, biotin-binding solution were applied to it and reacted at 37° C. for 1 hour. Then, this was washed with cold PBS-Tween 20, three times for 2 minutes, and 2 drops of an ABC solution (streptoavidin-biotin-peroxidase composite solution) were applied to it, and left statically as such for 30 minutes. Again this was washed with cold PBS-Tween 20, three times for 2 minutes, and then about 150 μl of a DAB solution (10 mg of DAB was dissolved in 20 ml of 0.05 mol/liter tris-HCl buffer, and just before use, 100 μl of 3% hydrogen peroxide water was added to it) was dropwise applied to it for sufficiently staining it. Then, this was washed with distilled water for 1 minute to stop the reaction, then entrapped and observed through microscopy.

T1 sequence (P05067 672-713 limits assumed): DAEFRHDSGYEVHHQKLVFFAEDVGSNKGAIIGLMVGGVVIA

Row | SMILES | Binding to (staining of) amyloid β protein in the brain section of an Alzheimer disease patient | Specificity to amyloid β
1 | CN(C)c1ccc(-c2nnc(-c3sc4cc(Cl)ccc4c3Cl)o2)cc1 [THK-262, [4-[5-(3,6-dichloro-benzo[b]thiophen-2-yl)-[1,3,4]oxadiazol-2-yl]-phenyl]-dimethylamine] | bound to the amyloid β protein | high specificity to amyloid β
2 | CN(C)c1ccc(/C=C\C=C2C(=O)c3ccccc3C2=O)cc1 [THK-248, 2-[3-(4-dimethylamino-phenyl)-allylidene]-indane-1,3-dione] | bound to the amyloid β protein | high specificity to amyloid β
3 | Cc1ccc2c(c1)C(C)(C)C1(/C=C/C=C/c3ccc(N(C)C)cc3)NC(=O)CCN21 (stereo not shown) [THK-565] | bound to the amyloid β protein | high specificity to amyloid β
4 | CN(C)c1ccc(/C=C/C23NC(=O)CN2c2ccc(Br)cc2C3(C)C)cc1 (stereo not shown) [THK-556, 7-bromo-9a-[2-(4-dimethyl-amino-phenyl)-vinyl]-9,9-dimethyl-9,9a-dihydro-1H-imidazo[1,2-a]indol-2-one] | bound to the amyloid β protein | high specificity to amyloid β

More lines, now with the values ahead:

Row | Binding to (staining of) amyloid β protein in the brain section of an Alzheimer disease patient | Specificity to amyloid β | SMILES
5 | bound to the amyloid β protein | high specificity to amyloid β | CN(C)c1ccc(/C=C/C23NC(=O)CCN2c2ccc(Br)cc2C3(C)C)cc1 (stereo not shown) [THK-558, 8-bromo-10a-[2-(4-dimethyl-amino-phenyl)-vinyl]-10,10-dimethyl 1-3,4,10,10a-tetrahydro-1H-pyrimido[1,2-a]indol-2-one]
6 | bound to the amyloid β protein | high specificity to amyloid β | O=C1Nc2ccc(Cl)cc2/C1=C/c1ccc(N2CCOCC2)s1 [THK-308, 5-chloro-3-(5-morpholin-4-yl-thiophen-2-ylmethylene)-1,3-dihydroindol-2-one]
7 | bound to the amyloid β protein | high specificity to amyloid β | c1csc(-c2nnc(-c3ccc(N4CCOCC4)cc3)o2)c1 [THK-383, 4-[4-(5-thiophen-2-yl-[1,3,4]oxadiazol-2-yl)-phenyl]-morpholine]
8 | bound to the amyloid β protein | high specificity to amyloid β | O=C1Nc2ccc(Cl)cc2/C1=C/c1ccc(N2CCOCC2)cc1 [THK-276, 5-chloro-3-(4-morpholin-4-yl-benzylidene)-1,3-dihydroindol-2-one]
